This is an account of results in ChEMBL document CHEMBL1159069, “[Lys(DOTA)4]BVD15, a novel and potent neuropeptide Y analog designed for Y1 receptor-targeted breast tumor imaging” (Bioorg Med Chem Lett, 2010).

Values joined by “and” are separate entries in the source; they are usually repeats but may differ in a detail not shown here. Equal values may be shown once. Where a SMILES comes first, the peptide text is derived from it. The star is where a group is joined. DOTA = O=C(O)CN1CCN(CC(=O)O)CCN(CC(=O)*)CCN(CC(=O)O)CC1

What all share (format): cell-based
For assay [1], the target named is T1, Neuropeptide Y receptor type 1 (Homo sapiens, UniProt P25929).
T1 sequence (P25929 whole entry): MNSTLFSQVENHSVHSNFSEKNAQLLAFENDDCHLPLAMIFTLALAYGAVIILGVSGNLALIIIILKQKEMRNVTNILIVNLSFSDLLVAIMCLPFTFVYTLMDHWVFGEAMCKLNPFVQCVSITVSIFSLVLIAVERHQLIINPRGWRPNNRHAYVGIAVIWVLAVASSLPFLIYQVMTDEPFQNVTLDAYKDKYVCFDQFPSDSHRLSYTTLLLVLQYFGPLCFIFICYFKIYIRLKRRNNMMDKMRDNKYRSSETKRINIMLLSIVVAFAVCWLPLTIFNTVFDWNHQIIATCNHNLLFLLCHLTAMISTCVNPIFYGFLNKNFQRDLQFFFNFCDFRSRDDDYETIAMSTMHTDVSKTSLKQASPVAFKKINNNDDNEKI
Briefly: Displacement of [125I]NPY from human neuropeptide Y1 receptor expressed in human MCF7 cells after 40 mins. In general terms: In a radioligand displacement assay an active substance lowers the binding of a labelled ligand.

Assay [2] addresses Neuropeptide Y receptor type 4 (Homo sapiens, UniProt P50391). Description: Displacement of [125I]Pancreatic polypeptide from human neuropeptide Y4 receptor in human HEK293 cells after 40 mins.
Assay [3] deals with T2, Neuropeptide Y receptor type 2 (Homo sapiens, UniProt P49146).
T2 sequence (P49146 whole entry): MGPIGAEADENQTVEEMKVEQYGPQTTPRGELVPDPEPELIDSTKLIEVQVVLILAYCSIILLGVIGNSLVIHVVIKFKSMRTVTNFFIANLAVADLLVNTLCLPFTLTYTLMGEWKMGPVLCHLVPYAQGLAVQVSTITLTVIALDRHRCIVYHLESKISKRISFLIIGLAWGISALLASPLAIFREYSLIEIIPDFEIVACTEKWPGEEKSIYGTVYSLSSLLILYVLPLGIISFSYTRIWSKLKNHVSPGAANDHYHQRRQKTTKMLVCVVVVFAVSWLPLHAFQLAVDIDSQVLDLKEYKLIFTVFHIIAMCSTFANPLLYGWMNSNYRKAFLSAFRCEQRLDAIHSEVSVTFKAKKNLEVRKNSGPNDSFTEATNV
Briefly: Displacement of [125I]PYY from human neuropeptide Y2 receptor expressed in human SK-N-BE2 cells after 40 mins.

Chain of Neuropeptide Y receptor type 4 (P50391 whole entry): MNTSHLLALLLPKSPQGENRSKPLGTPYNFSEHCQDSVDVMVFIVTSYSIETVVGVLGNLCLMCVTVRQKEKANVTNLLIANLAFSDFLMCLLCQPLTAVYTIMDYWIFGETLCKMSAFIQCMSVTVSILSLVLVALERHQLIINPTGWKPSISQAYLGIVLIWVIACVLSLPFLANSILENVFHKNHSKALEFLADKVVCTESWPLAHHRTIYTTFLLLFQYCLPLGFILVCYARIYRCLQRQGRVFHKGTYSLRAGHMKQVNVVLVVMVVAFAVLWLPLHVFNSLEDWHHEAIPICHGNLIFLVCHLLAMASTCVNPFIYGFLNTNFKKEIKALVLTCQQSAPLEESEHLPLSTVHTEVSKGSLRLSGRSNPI

As for H-IKPIYRLRY-NH2, the inhibitory constant (Ki) in assay [1] (read-out: Ki) turned out to be 128 nM.

Regarding `CC[C@H](C)[C@H](N)C(=O)N[C@@H](CC(N)=O)C(=O)N1CCC[C@H]1C(=O)N[C@@H](CCCCNC(=O)CN1CCN(CC(=O)O)CCN(CC(=O)O)CCN(CC(=O)O)CC1)C(=O)N[C@@H](Cc1ccc(O)cc1)C(=O)N[C@@H](CCCNC(=N)N)C(=O)N[C@@H](CC(C)C)C(=O)N[C@@H](CCCNC(=N)N)C(=O)N[C@@H](Cc1ccc(O)cc1)C(N)=O`, the Ki entry in assay [2] (hek293) and in assay [3] was “Not Active” each time.

For `CC(C)C[C@H](NC(=O)[C@H](CCCNC(=N)N)NC(=O)[C@H](Cc1ccc(O)cc1)NC(=O)[C@H](CCCCNC(=O)CN1CCN(CC(=O)O)CCN(CC(=O)O)CCN(CC(=O)O)CC1)NC(=O)[C@@H]1CCCN1C(=O)[C@@H](N)CC(N)=O)C(=O)N[C@@H](CCCNC(=N)N)C(=O)N[C@@H](Cc1ccc(O)cc1)C(=O)O` (H-NPK(DOTA)YRLRY-OH), the Ki entry in assay [1] (mcf7) was “Not Active”.

Regarding H-INPIYRLRY-OH, the inhibition constant (Ki) is 5.8 nM in assay [2] (read-out: Ki); 5 nM and 39 nM in assay [1] (read-out: Ki); 11.3 nM in assay [3] (read-out: Ki).

As a reminder, the Ki is the dissociation constant of the complex between target and ligand, obtained from inhibition or displacement.
